Reference: US8309563B2, “Quinazoline derivatives useful as anti-tumor medicament” (Shanghai Allist Pharmaceuticals, Inc., priority 2006, dated 2012)
Where two headings read alike, the source gives them in different places.

What was measured:
[1] = system: A431 cells (human epidermoid squamous carcinoma cell); assay: Anti-tumor experiment, improved MTT method, A431 cells, 72 h; type: cell-based
Description: The inventive compounds were formulated into 5 concentrations. […] The incubation was continued for another 6 h, and 100 μl SDS was added to end the reaction.
1. Cell Line: A431 Human Epidermoid Squamous Carcinoma Cell

[2] = system: BT-474: Human Breast Cancer Cell; assay: Inhibition of cell proliferation, SRB method, BT-474 cells, 5 days; type: cell-based; details: 120 h, Logit method, read-out: BT474 IC50
Description: 2. Cell Line: BT-474: Human Breast Cancer Cell The cells were incubated with compounds of various concentrations (10-0.001 μm individually) for 5 days. The inhibition of cell proliferation was tested according to the SRB method, and the inhibitory rate was figure out. According to the inhibitory rate, the IC50 was calculated by the Logit method. The anti-tumor activities in vitro were compared.

[3] = biological target: T1, Erb-B2 (Homo sapiens, UniProt P04626); assay: Inhibitory effect on the phosphorylation activity of Erb-B2 in BT474 cells (SDS-PAGE/blot, ECL); type: cell-based; details: BT474 cells treated […]; FIG. 1; comparison with Iressa
T1 construct: After treated with various compounds for 1.5 h, the cells were collected, cracked; endogenous in cells; host or cells: BT474 human breast cancer cells
T1 sequence (P04626 23-1255): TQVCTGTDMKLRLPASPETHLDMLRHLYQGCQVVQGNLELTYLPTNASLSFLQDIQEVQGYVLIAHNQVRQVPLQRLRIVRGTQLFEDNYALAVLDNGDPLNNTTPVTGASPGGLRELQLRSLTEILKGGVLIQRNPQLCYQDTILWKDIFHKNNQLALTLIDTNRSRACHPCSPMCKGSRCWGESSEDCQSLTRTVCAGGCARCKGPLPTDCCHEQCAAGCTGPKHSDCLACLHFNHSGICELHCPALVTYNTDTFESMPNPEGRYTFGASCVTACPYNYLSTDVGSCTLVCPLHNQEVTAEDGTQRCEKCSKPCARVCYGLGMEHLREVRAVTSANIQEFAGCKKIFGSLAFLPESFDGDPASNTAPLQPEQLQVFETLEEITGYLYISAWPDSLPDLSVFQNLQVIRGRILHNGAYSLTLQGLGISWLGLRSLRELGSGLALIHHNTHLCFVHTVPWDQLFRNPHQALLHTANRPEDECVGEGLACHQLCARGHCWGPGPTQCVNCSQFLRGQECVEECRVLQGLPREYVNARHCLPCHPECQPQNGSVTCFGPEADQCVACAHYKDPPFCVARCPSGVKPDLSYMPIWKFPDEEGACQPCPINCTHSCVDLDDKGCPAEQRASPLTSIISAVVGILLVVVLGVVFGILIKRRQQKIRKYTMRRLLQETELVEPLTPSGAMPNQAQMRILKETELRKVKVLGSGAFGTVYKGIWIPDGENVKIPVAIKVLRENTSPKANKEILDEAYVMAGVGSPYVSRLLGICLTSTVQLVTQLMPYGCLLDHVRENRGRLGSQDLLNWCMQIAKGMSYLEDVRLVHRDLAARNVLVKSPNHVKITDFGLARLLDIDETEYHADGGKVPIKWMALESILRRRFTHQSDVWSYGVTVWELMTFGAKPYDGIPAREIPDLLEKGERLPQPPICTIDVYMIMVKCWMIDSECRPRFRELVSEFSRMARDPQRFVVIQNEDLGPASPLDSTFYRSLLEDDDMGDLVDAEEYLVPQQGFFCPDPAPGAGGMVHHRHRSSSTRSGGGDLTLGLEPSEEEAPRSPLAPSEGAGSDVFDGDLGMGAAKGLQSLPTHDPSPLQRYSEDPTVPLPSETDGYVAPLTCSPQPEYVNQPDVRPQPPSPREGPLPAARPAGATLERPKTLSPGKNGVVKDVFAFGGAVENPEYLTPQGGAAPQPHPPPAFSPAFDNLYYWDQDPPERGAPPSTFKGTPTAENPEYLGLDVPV
Description: The inhibitory effect of compound 8 and compound 14 on the phosphorylation activity of Erb-B2: The concentration of the human breast cancer cells BT474 were adjusted to a suitable concentration, and inoculated into a plate. After treated with various compounds for 1.5 h, the cells were collected, cracked and the protein was adjusted to the same quantity. Following the protein-denaturation, SDS-PAGE was conducted, and transferred to nitric acid cellulose film; Hybriding with the anti-phosphorylation antibody (mono-anti), anti-β-tublin antibody (mono-anti) and anti-mouse-IgG antibody (bi-anti) respectively; Assayed by the ECL kit and the X-ray plate was exposed. According to the size and the density of the corresponding protein band, the inhibitory effect on Erb-B2 kinases can be evaluated.

[4] = system: human skin squamous cancer cell A431 grafted in a nude mouse; assay: Anti-tumor effect on human skin squamous cancer cell A431 grafted in a nude mouse; type: in vivo
Description: A well-growth solid tumor of A431 was selected and incised into several pieces with the size of 2-3 mm; each was grafted into the right armpit of a mouse subcutaneously with a trocar respectively. 5 After 7days, the test compounds were administrated by gastric perfusion through the mouth for 13 days continuously. The long span (a) and the short span (b) of the tumor were measured with a vernier caliper every 4 days. According to the formula V=ab^2/2, the volume (mm^3) of the tumor could be calculated. The test animals were neck-off killed 23 days after the grafting. The test animals were anatomized to obtain the tumor. The tumors were weighed and the inhibitory rate was calculated.

[5] = A431 cells, * = two results from two experiments, read-out: A431 IC50
[6] = Homo sapiens, A-431, 72 h, A431 cells, 72 h, class symbols, read-out: IC50
[7] = Homo sapiens, A-431, A431 cells, * = two results from two experiments, read-out: A431 IC50

Row | IC50 [1, 6] | IC50 [1, 7] | IC50 [2] | SMILES | further results
1 | 1 to 10 µM | – | – | CN(C)C/C=C/C(=O)Nc1cc2c(Nc3ccc(OCc4cccc(F)c4)c(Cl)c3)ncnc2cc1Cl [Example 15, N-{4-[3-chloro-4-(3-fluorobenzyloxy)-phenylamino]-7-chloro-quinazolin-6-yl}-E,4-(dimethylamino)-but-2-enamide] | –
2 | 10 to 50 µM | – | – | CN(C)C/C=C/C(=O)Nc1ccc2ncnc(Nc3ccc(OCc4cccc(F)c4)c(Cl)c3)c2c1 [Example 10, N-{4-[3-chloro-4-(3-fluorobenzyloxy)-phenylamino]-quinazolin-6-yl}-E,4-(dimethylamino)-but-2-enamide] | –
3 | < 1 µM | 0.18 µM | 0.001 µM | C=CC(=O)Nc1ccc2ncnc(Nc3ccc(OCc4cccc(F)c4)c(Cl)c3)c2c1 [Example 8, N-{4-[3-chloro-4-(3-fluorobenzyloxy)-phenylamino]-quinazolin6-yl}-acrylamide] | IC50 [1, 5]: 0.11 µM; inhibitory activity on phosphorylation of Erb-B2 compared with Iressa [3]: more superior inhibitory activity; inhibition % ([4]; 25 mg/kg ig × 13, by tumor weight): 29.99%; Weight of the tumor (g) x ± SD ([4]; 25 mg/kg ig × 13, day 23 after grafting): 0.79 ± 0.20 g; Weight of the test animals (g) (tumor-off) ([4]; 25 mg/kg ig × 13, nude mouse A431 graft): 21.58 ± 2.18 g; inhibition % ([4]; 50 mg/kg ig × 13, by tumor weight): 38.67%; Weight of the tumor (g) x ± SD ([4]; 50 mg/kg ig × 13, day 23 after grafting): 0.69 ± 0.17 g; Weight of the test animals (g) (tumor-off) ([4]; 50 mg/kg ig × 13, nude mouse A431 graft): 22.87 ± 3.96 g; inhibition % ([4]; 100 mg/kg ig × 13, by tumor weight): 43.63%; Weight of the tumor (g) x ± SD ([4]; 100 mg/kg ig × 13, day 23 after grafting): 0.64 ± 0.23 g; Weight of the test animals (g) (tumor-off) ([4]; 100 mg/kg ig × 13, nude mouse A431 graft): 22.13 ± 1.83 g
4 | 1 to 10 µM | – | – | C=CC(=O)Nc1cc2c(Nc3ccc(OCc4cccc(F)c4)c(Cl)c3)ncnc2cc1Cl [Example 16, N-{4-[3-chloro-4-(3-fluorobenzyloxy)-phenylamino]-7-chloro-quinazolin-6-yl}-acrylamide] | –
5 | < 1 µM | – | – | CN(C)C/C=C/C(=O)Nc1cc2c(Nc3ccc(OCc4cccc(F)c4)c(Cl)c3)ncnc2cc1OCC(F)(F)F [Example 12] | –
6 | 1 to 10 µM | 2.03 µM | 0.049 µM | CS(=O)(=O)OCc1ccc(-c2ccc3ncnc(Nc4ccc(OCc5cccc(F)c5)c(Cl)c4)c3c2)o1 [Example 28, 4-[3-chloro-4-(3-fluorobenzyloxy)-phenylamino]-6-(5-methanesulfonyloxymethylene-furan-2-yl)-quinazoline] | –
7 | 10 to 50 µM | 24 µM | 0.17 µM | COc1ccc(-c2ccc3ncnc(Nc4ccc(OCc5cccc(F)c5)c(Cl)c4)c3c2)cc1 [Example 23, 4-[3-chloro-4-(3-fluorobenzyloxy)-phenylamino]-6-(4-methoxy-phenyl)-quinazoline] | –
8 | < 1 µM | 3.48 µM | 0.043 µM | CC(=O)Oc1ccc2ncnc(Nc3ccc(OCc4cccc(F)c4)c(Cl)c3)c2c1 [Example 17, O-{4-[-3-chloro-4-(3-fluorobenzyloxy)-phenylamino]-quinazolin-6-yl}-acetate] | –
9 | 1 to 10 µM | – | – | CN(C)Cc1ccc(-c2ccc3ncnc(Nc4ccc(OCc5cccc(F)c5)c(Cl)c4)c3c2)o1 [Example 29, 4-[3-chloro-4-(3-flurobenzyloxy)-phenylamino]-6-(5-dimethylaminomethyl-furan-2-yl)-quinazoline] | –
10 | < 1 µM | 1.69 µM | 0.079 µM | Fc1cccc(COc2ccc(Nc3ncnc4ccc(OCCCN5CCOCC5)cc34)cc2Cl)c1 [Example 20, 4-[3-chloro-4-(3-fluorobenzyloxy)-phenylamino]-6-[3-(4-morpholino)-propoxy]-quinazoline] | –
11 | 10 to 50 µM | – | – | Oc1ccc2ncnc(Nc3ccc(OCc4cccc(F)c4)c(Cl)c3)c2c1 [Example 18, 4-[3-chloro-4-(3-fluorobenzyloxy)-phenylamino]-6-hydroxy-quinazoline] | –
12 | 10 to 50 µM | – | – | Fc1cccc(COc2ccc(Nc3ncnc4ccc(Br)cc34)cc2Cl)c1 [Example 22, 4-[3-chloro-4-(3-fluorobenzyloxy)-phenylamino]-6-bromo-quinazoline] | –
13 | 1 to 10 µM | – | – | COc1cc2ncnc(Nc3ccc(OCc4cccc(F)c4)c(Cl)c3)c2cc1NC(=O)/C=C/CN(C)C [Example 13, N-{4-[3-chloro-4-(3-fluorobenzyloxy)-phenylamino]-7-methoxy-quinazolin-6-}-E-4-(dimethylamino)-but-2-enamide] | –
14 | 1 to 10 µM | 2.21 µM | 0.19 µM | COc1cc2ncnc(Nc3ccc(OCc4cccc(F)c4)c(Cl)c3)c2cc1OC [Example 21, 4-[3-chloro-4-(3-fluorobenzyloxy)-phenylamino]-6,7-dimethoxy-quinazoline] | –
15 | 1 to 10 µM | 1.22 µM | 0.28 µM | Cc1ccc(S(=O)(=O)Nc2ccc3ncnc(Nc4ccc(OCc5cccc(F)c5)c(Cl)c4)c3c2)cc1 [Example 9, N-{4-[-3-chloro-4-(3-fluorobenzyloxy)-phenylamino]-quinazolin-6-yl}-p-methylbenzenesulfonamide] | –
16 | 1 to 10 µM | 1.53 µM | 0.023 µM | OCc1ccc(-c2ccc3ncnc(Nc4ccc(OCc5cccc(F)c5)c(Cl)c4)c3c2)o1 [Example 27, 4-[3-chloro-4-(3-fluorobenzyloxy)-phenylamino]-6-(5-hydroxymethyl-furan-2-yl)-quinazoline] | IC50 [1, 5]: 1.03 µM
17 | 1 to 10 µM | 4.04 µM | 6.63 µM | COCCOCc1cccc(-c2ccc3ncnc(Nc4ccc(OCc5cccc(F)c5)c(Cl)c4)c3c2)c1 [Example 26, 4-[3-chloro-4-(3-fluorobenzyloxy)-phenylamino]-6-[3-(methoxyethoxymethylene)-phenyl]-quinazoline] | –
18 | 1 to 10 µM | 1.72 µM | 0.0069 µM | C=CC(=O)Nc1cc2c(Nc3ccc(OCc4cccc(F)c4)c(Cl)c3)ncnc2cc1OC [Example 14] | inhibitory activity on phosphorylation of Erb-B2 compared with Iressa [3]: more superior inhibitory activity
19 | 1 to 10 µM | 3.87 µM | 0.086 µM | OCc1cccc(-c2ccc3ncnc(Nc4ccc(OCc5cccc(F)c5)c(Cl)c4)c3c2)c1 [Example 24, 4-[3-chloro-4-(3-fluorobenzyloxy)-phenylamino]-6-(3-hydroxymethyl-phenyl)-quinazoline] | –
20 | 1 to 10 µM | 9.26 µM | 0.24 µM | COc1cc2ncnc(Nc3ccc(OCc4cccc(F)c4)c(Cl)c3)c2cc1OCCCN1CCOCC1 [Example 30, 4-[3-chloro-4-(3-fluorobenzyloxy)-phenylamino]-6-(3-(4-morpholino)propoxy)-7-methoxy-quinazoline] | –

Row | SMILES | IC50 [1, 6] | IC50 [1, 7] | IC50 [2] | further results
21 | COCCOc1ccc2ncnc(Nc3ccc(OCc4cccc(F)c4)c(Cl)c3)c2c1 [Example 19] | 1 to 10 µM | 3.29 µM | 0.088 µM | IC50 [1, 5]: 1.7 µM
22 | CC(=O)OCc1cccc(-c2ccc3ncnc(Nc4ccc(OCc5cccc(F)c5)c(Cl)c4)c3c2)c1 [Example 25, 4-[3-chloro-4-(3-fluorobenzyloxy)-phenylamino]-6-(3-acetoxymethyl-phenyl)-quinazoline] | < 1 µM | – | 0.062 µM | –
